From patent US4556662A, “Bispidine derivatives and antiarrhythmic compositions” (BASF Aktiengesellschaft, priority 1981, dated 1985) come the findings set out here.

Values after ≈ are worked out from the molar mass of the structure shown. Like-named read-outs stand apart in the source and are kept apart here.

Series [1] concerns isolated guinea pig atrium. Description: Isolated guinea pig left atria: decrease in force of contraction (negatively inotropic effect). The conditions noted are these: for EC25: Cavia porcellus, isolated left atria, pH 7.4, 32° C., read-out: Force of contraction EC 25% (concentration which causes a 25% decrease in the force of contraction); for Q: quotient EC 25% (decrease in force of contraction)/EC 50% (decrease in maximum driving rate): isolated guinea pig atrium; for Force of contraction R.A. (relative activity): reference substance B = 1.00. More on the design: species or system guinea pig (Pirbright white, male). On the procedure:
(§1) The antiarrhythmic activity of the compound according to the invention is determined on isolated left atria of male guinea pigs (Pirbright white, weight 350 to 450 g). Atria suspended in an organ bath (volume 125 ml) containing carbogen (95% O2 /5% CO2)-saturated Tyrode's solution (pH 7.4, 32° C.) are prestressed with 1.0 g and are driven by square wave pulses of 1 Hz base rhythm and double stimulation threshold values (rheo base: 0.2 to 1.4 V, chronaxia: 0.3 to 0.5 msec). As a criterion of the antiarrhythmic activity, the frequency (in Hz) at which the atria are just still able to follow the sequence of pulses (the maximum driving rate) is determined by automatic continuous increase in frequency. The concentration which produces a 50% decrease in maximum driving rate, i.e. the EC 50%, is calculated from the linear relationship between log concentration (mg/1) of the active substance and relative decrease in maximum driving rate (Δ%).
Furthermore, the concentration which produces a 25% decrease in contraction amplitude, i.e. the EC 25%, is determined, as a measure of the negatively inotropic effect, from the linear relationship between log concentration (mg/1) and relative change in contraction amplitude (Δ%).

Series [2] in a line: Toxicity in the rat (oral), dose at which toxic symptoms occur. The format is in vivo, rat (Sprague Dawley, male). The conditions noted are these: in vivo, read-out: Q: quotient of the acute toxic dose and the antiarrhythmic ED 50%. On the procedure:
(§2) Moreover, the antiarrhythmic activity of the novel substances is determined on male rats (Sprague Dawley, weight 200 to 230 g), after oral administration. 45 minutes after administration of the substance, the animals are anesthetized with sodium thiobutabarbital (100 mg/kg, administered intraperitoneally). Aconitine is used as the arrhythmogenic substance, and is infused intravenously at a rate of 0.005 mg/kg per min, 60 minutes after administration of the test substance. […] The dose which prolongs the infusion time by 50%, i.e. the ED 50%, is determined from the linear relationship between log dose (mg/kg) of the test substance and the relative prolongation of the aconitine infusion time (%).
(§3) Further, the dose at which toxic symptoms (changes in the initial ECG, cyanosis or cramp) occur is determined. The quotient of the acute toxic dose and the antiarrhythmic ED 50% is therefore determined as a measure of the toleration.

Series [3] relates to rat. The description is as above. Conditions: for Toxic dose (dose after whose administration the first toxic symptoms are observed): changes in the initial ECG, cyanosis or cramp. It counts as in vivo, rat (Sprague Dawley, male). On the procedure:
as §2, §3

Series [4] concerns aconitine-induced arrhythmia in rats. As to the kind of experiment: Antiarrhythmic effect on aconitine-induced arrhythmia in the rat (oral). It counts as in vivo, rat (Sprague Dawley, male). The conditions noted are these: for ED50: Rattus norvegicus, po, 1 h, read-out: Effective dose EC 50% (dose which prolongs the aconitine infusion time by 50%); for Effective dose R.A. (relative activity): rat, reference substance B = 1.00. As for the experimental part: as §2

Series [5] relates to isolated guinea pig atrium. Description: Isolated guinea pig left atria: decrease in maximum driving rate (antiarrhythmic activity). More on the design: species or system guinea pig (Pirbright white, male). The conditions noted are these: for EC50: Cavia porcellus, isolated left atria, pH 7.4, 32° C., read-out: Maximum driving rate EC 50% (concentration which causes a 50% decrease in the maximum driving rate); for Maximum driving rate R.A. (relative activity): reference substance B = 1.00. As for the experimental part:
as §1

For series [6], the system named is blood pressure of unanesthetized dogs. Description: Effect on the blood pressure of unanesthetized dogs (intravenous). The format is in vivo, dog. As for the experimental part: Moreover, the effect of the compound according to the invention on the systolic and diastolic blood pressure of unanesthetized dogs on intravenous administration is tested.
Series [7] deals with isolated strips of rat aorta. Description: Constrictive effect on isolated strips of rat aorta. The conditions noted are these: for EC50: spiral strips of rat aorta, 37° C. The source says:
The novel compounds are further characterized by investigation whether, in addition to antiarrhythmic properties, stimulating effects on smooth muscle, which may lead to undesirable side effects (hypertension or stimulation of the uterus), are detectable.

The mark [8] stands for this setting: read-out: EC 50, constrictive effect (50% of the contraction obtained with noradrenalin 10^-6 mol/l).

`c1ccc(CN2CC3CC(C2)CN(CC(c2ccccc2)c2ccccc2)C3)cc1` [A, N-benzyl-N'-(2,2-diphenylethyl)-bispidine]: in series [1], the EC25 stood at 4.92 µg/mL (≈ 12.4 µM), the “Q: quotient EC 25% (decrease in force of contraction)/EC 50% (decrease in maximum driving rate)” value was 3.44 and the “Force of contraction R.A. (relative activity)” value came out at 4.43. The selectivity ratio in series [2] was determined as 7.7. Moreover, in series [3], the “Toxic dose (dose after whose administration the first toxic symptoms are observed)” value (shortened to “Toxic dose”) amounted to 100 mg/kg. In series [4], the ED50 was 13 mg/kg. Also, in series [4] (oral), the “Effective dose R.A. (relative activity)” value is 1.75. Further, in series [5], the EC50 is 1.43 µg/mL (≈ 3.61 µM) and the “Maximum driving rate R.A. (relative activity)” value amounted to 3.93.
Regarding `c1ccc(CN2CC3CC(C2)CN(Cc2ccccc2)C3)cc1` [B, N,N'-bisbenzylbispidine], in series [1], the EC25 came to 21.8 µg/mL (≈ 71.1 µM) and the “Q: quotient EC 25% (decrease in force of contraction)/EC 50% (decrease in maximum driving rate)” value is 3.68. Also, in series [6], the “effect on systolic and diastolic blood pressure (in words)” value was “substantial increase in the systolic and in particular in the diastolic blood pressure”. For the same compound, in series [6] (2.0 mg/kg), the “Change in blood pressure, diastolic” value is recorded as “+59 Δmm Hg” and the “Change in blood pressure, systolic” value is reported as “+20 Δmm Hg”. For the same compound, the selectivity ratio in series [2] amounted to 4.4. Moreover, the “Toxic dose” value in series [3] is 100 mg/kg. Further, the EC50 in series [7] (setting [8]) was determined as 3.8 µM. Moreover, the ED50 in series [4] was determined as 22.7 mg/kg. Besides, the EC50 in series [5] turned out to be 5.92 µg/mL (≈ 19.3 µM).
In the case of `Nc1ccc(C(=O)N2CC3CC(CN(Cc4ccccc4)C3)C2)cc1` [C, N-(4-Aminobenzoyl)-N'-benzylbispidine], in series [1], the EC25 worked out at 100 µg/mL (≈ 298 µM), the “Q: quotient EC 25% (decrease in force of contraction)/EC 50% (decrease in maximum driving rate)” value came out at 16.3 and the “Force of contraction R.A. (relative activity)” value is 0.22. For the same compound, the “decrease in the force of contraction (in words)” value in series [1] (isolated guinea pig atria) was “relatively small decrease in the force of contraction”. Moreover, the “effect on systolic and diastolic blood pressure (in words)” value in series [6] is reported as “no hypertensive effect”. In addition, in series [6] (2.0 mg/kg), the “Change in blood pressure, diastolic” value is -2 Δmm Hg and the “Change in blood pressure, systolic” value is given as -5 Δmm Hg. In series [2], the selectivity ratio is 7.3. For the same compound, the “Toxic dose” value in series [3] is recorded as 46.4 mg/kg. Also, the “difference between toxic and antiarrhythmic doses, relative to reference substances” value in series [3] (versus reference substances) was “about twice the difference or about the same difference, respectively”. For the same compound, the “stimulating effects on smooth muscle (in words)” value in series [7] (Table 3) is listed as “lack of stimulating effects on smooth muscle”. Further, the “constrictive effect on the vascular muscle in vitro (in words)” value in series [7] (even in very high concentrations (3.10^-4 mol/l)) was “no constrictive effect”. Moreover, the EC50 in series [7] (no effect up to 3.10^-4 mol/l, read-out: EC 50, constrictive effect (symbol for no effect)) is greater than 300 µM. Moreover, in series [4], the ED50 stood at 6.37 mg/kg. Besides, the “antiarrhythmic activity relative to reference substance A” value in series [4] (aconitine-induced arrhythmia in rats, oral, versus A) is on record as “twice”. Moreover, the “antiarrhythmic activity relative to reference substance B” value in series [4] (aconitine-induced arrhythmia in rats, oral, versus B) was “about 4 times”. Moreover, in series [4] (aconitine-induced arrhythmia in rats, oral, versus sparteine), the “antiarrhythmic activity relative to sparteine” value was roughly 18 times. In addition, the “Effective dose R.A. (relative activity)” value in series [4] (oral) is listed as 3.56. For the same compound, in series [5], the EC50 is 6.14 µg/mL (≈ 18.3 µM) and the “Maximum driving rate R.A. (relative activity)” value is given as 0.96. For the same compound, the “antiarrhythmic effect on isolated guinea pig atria (in words)” value in series [5] (decrease in maximum driving rate) is “powerful antiarrhythmic effect”.
With `C1CCN2C[C@@H]3C[C@@H](CN4CCCC[C@@H]34)[C@H]2C1` [Sparteine, sparteine], the “effect on systolic and diastolic blood pressure (in words)” value in series [6] is “substantial increase in the systolic and in particular in the diastolic blood pressure”. Further, in series [6] (5.0 mg/kg), the “Change in blood pressure, diastolic” value was “+40 Δmm Hg” and the “Change in blood pressure, systolic” value is reported as “+19 Δmm Hg”. Also, in series [2], the selectivity ratio turned out to be 4.1. The “Toxic dose” value in series [3] is 464 mg/kg. The EC50 in series [7] (setting [8]) was determined as 550 µM. The ED50 in series [4] was 112 mg/kg. For the same compound, the “Effective dose R.A. (relative activity)” value in series [4] (oral) is recorded as 4.93.
